Laboratory results published in ChEMBL document CHEMBL3734705, “Synthesis and in vitro cytotoxicity of novel C-12 substituted-14-deoxy-andrographolide derivatives as potent anti-cancer agents” (2015).

Experiments:
A549 = assay: Cytotoxicity against human A549 cells assessed as growth inhibition at 10 uM after 48 hrs by SRB assay; assay type: functional; settings: A549, 48 h, read-out: GI
[1] = Cytotoxicity against human SNB75 cells assessed as growth level at 10 uM after 48 hrs by SRB assay; assay type: functional, SNB-75
786-0 [2] = assay: Cytotoxicity against human 786-0 cells assessed as growth level at 10 uM after 48 hrs by SRB assay; assay type: functional
[3] = Cytotoxicity against human SF295 cells assessed as growth inhibition at 10 uM after 48 hrs by SRB assay; assay type: functional; settings: SF-295, 48 h, read-out: GI
[4] = Cytotoxicity against human Hs578T cells assessed as growth level at 10 uM after 48 hrs by SRB assay; assay type: functional, Hs-578T
[5] = Cytotoxicity against human COLO205 cells assessed as growth inhibition at 10 uM after 48 hrs by SRB assay; assay type: functional; settings: COLO 205, 48 h, read-out: GI
ACHN = assay: Cytotoxicity against human ACHN cells assessed as growth level at 10 uM after 48 hrs by SRB assay; assay type: functional
[6] = Cytotoxicity against human HCC2998 cells assessed as growth inhibition at 10 uM after 48 hrs by SRB assay; assay type: functional; settings: HCC 2998, 48 h, read-out: GI
EKVX = assay: Cytotoxicity against human EKVX cells assessed as growth inhibition at 10 uM after 48 hrs by SRB assay; assay type: functional; settings: read-out: GI
[7] = Cytotoxicity against human HCC2998 cells assessed as growth level at 10 uM after 48 hrs by SRB assay; assay type: functional, HCC 2998
786-0 [8] = assay: Cytotoxicity against human 786-0 cells assessed as growth inhibition at 10 uM after 48 hrs by SRB assay; assay type: functional; settings: 786-0, 48 h, read-out: GI
KM12 = assay: Cytotoxicity against human KM12 cells assessed as growth inhibition at 10 uM after 48 hrs by SRB assay; assay type: functional; settings: KM12, 48 h, read-out: GI
SR = assay: Cytotoxicity against human SR cells assessed as growth level at 10 uM after 48 hrs by SRB assay; assay type: functional
U-251 [9] = assay: Cytotoxicity against human U251 cells assessed as growth inhibition at 10 uM after 48 hrs by SRB assay; assay type: functional; settings: U-251, 48 h, read-out: GI
MDA-MB-435 [10] = assay: Cytotoxicity against human MDA-MB-435 cells assessed as growth level at 10 uM after 48 hrs by SRB assay; assay type: functional
[11] = Cytotoxicity against human OVCAR3 cells assessed as growth level at 10 uM after 48 hrs by SRB assay; assay type: functional, OVCAR-3
MCF7 = assay: Cytotoxicity against human MCF7 cells assessed as growth inhibition at 10 uM after 48 hrs by SRB assay; assay type: functional; settings: MCF7, 48 h, read-out: GI
[12] = Cytotoxicity against human OVCAR3 cells assessed as growth inhibition at 10 uM after 48 hrs by SRB assay; assay type: functional; settings: OVCAR-3, 48 h, read-out: GI
[13] = Cytotoxicity against human COLO205 cells assessed as growth level at 10 uM after 48 hrs by SRB assay; assay type: functional, COLO 205
[14] = Cytotoxicity against human OVCAR4 cells assessed as growth inhibition at 10 uM after 48 hrs by SRB assay; assay type: functional; settings: OVCAR-4, 48 h, read-out: GI
[15] = Cytotoxicity against human Caki1 cells assessed as growth level at 10 uM after 48 hrs by SRB assay; assay type: functional, CAKI-1
[16] = Cytotoxicity against human SKOV3 cells assessed as growth inhibition at 10 uM after 48 hrs by SRB assay; assay type: functional; settings: SK-OV-3, 48 h, read-out: GI
HT-29 = assay: Cytotoxicity against human HT-29 cells assessed as growth level at 10 uM after 48 hrs by SRB assay; assay type: functional
[17] = Cytotoxicity against human LOXIMVI cells assessed as growth level at 10 uM after 48 hrs by SRB assay; assay type: functional, LOX IMVI
SK-MEL-5 = assay: Cytotoxicity against human SK-MEL-5 cells assessed as growth inhibition at 10 uM after 48 hrs by SRB assay; assay type: functional; settings: SK-MEL-5, 48 h, read-out: GI
SK-MEL-28 = assay: Cytotoxicity against human SK-MEL-28 cells assessed as growth inhibition at 10 uM after 48 hrs by SRB assay; assay type: functional; settings: SK-MEL-28, 48 h, read-out: GI
[18] = Cytotoxicity against human Caki1 cells assessed as growth inhibition at 10 uM after 48 hrs by SRB assay; assay type: functional; settings: CAKI-1, 48 h, read-out: GI
[19] = Cytotoxicity against human IGROV1 cells assessed as growth level at 10 uM after 48 hrs by SRB assay; assay type: functional, IGROV-1
[20] = Cytotoxicity against human SF295 cells assessed as growth level at 10 uM after 48 hrs by SRB assay; assay type: functional, SF-295
[21] = Cytotoxicity against human PC3 cells assessed as growth level at 10 uM after 48 hrs by SRB assay; assay type: functional, PC-3
[22] = Cytotoxicity against human SW620 cells assessed as growth inhibition at 10 uM after 48 hrs by SRB assay; assay type: functional; settings: SW-620, 48 h, read-out: GI
[23] = Cytotoxicity against human DU145 cells assessed as growth inhibition at 10 uM after 48 hrs by SRB assay; assay type: functional; settings: DU-145, 48 h, read-out: GI
M14 = assay: Cytotoxicity against human M14 cells assessed as growth level at 10 uM after 48 hrs by SRB assay; assay type: functional
MDA-MB-435 [24] = assay: Cytotoxicity against human MDA-MB-435 cells assessed as growth inhibition at 10 uM after 48 hrs by SRB assay; assay type: functional; settings: MDA-MB-435, 48 h, read-out: GI
[25] = Cytotoxicity against human HOP92 cells assessed as growth level at 10 uM after 48 hrs by SRB assay; assay type: functional, HOP-92
[26] = Cytotoxicity against human HCT116 cells assessed as growth level at 10 uM after 48 hrs by SRB assay; assay type: functional, HCT-116
[27] = Cytotoxicity against human SF268 cells assessed as growth inhibition at 10 uM after 48 hrs by SRB assay; assay type: functional; settings: SF-268, 48 h, read-out: GI
[28] = Cytotoxicity against human OVCAR4 cells assessed as growth level at 10 uM after 48 hrs by SRB assay; assay type: functional, OVCAR-4
NCI-H522 = assay: Cytotoxicity against human NCI-H522 cells assessed as growth level at 10 uM after 48 hrs by SRB assay; assay type: functional
U-251 [29] = assay: Cytotoxicity against human U251 cells assessed as growth level at 10 uM after 48 hrs by SRB assay; assay type: functional
[30] = Cytotoxicity against human SNB19 cells assessed as growth inhibition at 10 uM after 48 hrs by SRB assay; assay type: functional; settings: SNB-19, 48 h, read-out: GI
NCI-H23 = assay: Cytotoxicity against human NCI-H23 cells assessed as growth level at 10 uM after 48 hrs by SRB assay; assay type: functional
[31] = Cytotoxicity against human DU145 cells assessed as growth level at 10 uM after 48 hrs by SRB assay; assay type: functional, DU-145
K562 = assay: Cytotoxicity against human K562 cells assessed as growth inhibition at 10 uM after 48 hrs by SRB assay; assay type: functional; settings: K562, 48 h, read-out: GI

**Q.** With `C=C1CC[C@@H]2[C@](C)(COC(C)=O)[C@H](OC(C)=O)CC[C@@]2(C)[C@@H]1CC(NCCCCCCCC)C1=CCOC1=O` (mixture of isomers) as the molecule, how does the inhibition of growth at 10 µM (A549) read?
**A.** 32.8%

**Q.** What about the Activity [1] of the same molecule?
**A.** 74.62%

**Q.** And the Activity (786-0 [2])?
**A.** 79.87%

**Q.** And the inhibition of growth at 10 µM [3]?
**A.** 19%

**Q.** What about the Activity [4] of the same molecule?
**A.** 83.08%

**Q.** And the inhibition of growth at 10 µM [5]?
**A.** 29.2%

**Q.** And the Activity (ACHN)?
**A.** 85.98%

**Q.** And the inhibition of growth at 10 µM [6]?
**A.** 8.56%

**Q.** And the inhibition of growth at 10 µM (EKVX)?
**A.** 24.3%

**Q.** And the Activity [7]?
**A.** 91.44%

**Q.** What about the inhibition of growth at 10 µM (786-0 [8]) of the same molecule?
**A.** 20.1%

**Q.** What about the inhibition of growth at 10 µM (KM12) of the same molecule?
**A.** 31.4%

**Q.** What about the Activity (SR) of the same molecule?
**A.** 36.8%

**Q.** And the inhibition of growth at 10 µM (U-251 [9])?
**A.** 44.5%

**Q.** And the Activity (MDA-MB-435 [10])?
**A.** 77.59%

**Q.** What about the Activity [11] of the same molecule?
**A.** 48.95%

**Q.** What about the inhibition of growth at 10 µM (MCF7) of the same molecule?
**A.** 31.2%

**Q.** And the inhibition of growth at 10 µM [12]?
**A.** 51%

**Q.** And the Activity [13]?
**A.** 70.75%

**Q.** What about the inhibition of growth at 10 µM [14] of the same molecule?
**A.** 47.7%

**Q.** What about the Activity [15] of the same molecule?
**A.** 68.67%

**Q.** What about the inhibition of growth at 10 µM [16] of the same molecule?
**A.** 22.9%

**Q.** What about the Activity (HT-29) of the same molecule?
**A.** 70.47%

**Q.** What about the Activity [17] of the same molecule?
**A.** 53.89%

**Q.** What about the inhibition of growth at 10 µM (SK-MEL-5) of the same molecule?
**A.** 49.4%

**Q.** What about the inhibition of growth at 10 µM (SK-MEL-28) of the same molecule?
**A.** 14.4%

**Q.** And the inhibition of growth at 10 µM [18]?
**A.** 31.3%

**Q.** And the Activity [19]?
**A.** 70.18%

**Q.** What about the Activity [20] of the same molecule?
**A.** 81%

**Q.** What about the Activity [21] of the same molecule?
**A.** 33.69%

**Q.** What about the inhibition of growth at 10 µM [22] of the same molecule?
**A.** 27.6%

**Q.** And the inhibition of growth at 10 µM [23]?
**A.** 11.3%

**Q.** And the Activity (M14)?
**A.** 75.91%

**Q.** And the inhibition of growth at 10 µM (MDA-MB-435 [24])?
**A.** 22.4%

**Q.** And the Activity [25]?
**A.** 44.59%

**Q.** What about the Activity [26] of the same molecule?
**A.** 35.89%

**Q.** What about the inhibition of growth at 10 µM [27] of the same molecule?
**A.** 32.2%

**Q.** What about the Activity [28] of the same molecule?
**A.** 52.34%

**Q.** What about the Activity (NCI-H522) of the same molecule?
**A.** 64.41%

**Q.** What about the Activity (U-251 [29]) of the same molecule?
**A.** 55.53%

**Q.** What about the inhibition of growth at 10 µM [30] of the same molecule?
**A.** 21.2%

**Q.** And the Activity (NCI-H23)?
**A.** 70.76%

**Q.** What about the Activity [31] of the same molecule?
**A.** 88.73%

**Q.** What about the inhibition of growth at 10 µM (K562) of the same molecule?
**A.** 65.3%

**Q.** Which results are given for `C=C1CC[C@@H]2[C@](C)(COC(C)=O)[C@H](OC(C)=O)CC[C@@]2(C)[C@@H]1CC(NC1CCCC1)C1=CCOC1=O` (some centres not stated)?
**A.** inhibition of growth at 10 µM (A549): 26.4%; Activity [1]: 68.03%; Activity (786-0 [2]): 92.51%; inhibition of growth at 10 µM [3]: 9.61%; Activity [4]: 74.91%; inhibition of growth at 10 µM [5]: 24.8%; Activity (ACHN): 78.47%; inhibition of growth at 10 µM [6]: 9.65%; inhibition of growth at 10 µM (EKVX): 47.6%; Activity [7]: 90.35%; inhibition of growth at 10 µM (786-0 [8]): 7.49%; inhibition of growth at 10 µM (KM12): 25.5%; Activity (SR): 19.62%; inhibition of growth at 10 µM (U-251 [9]): 24.6%; Activity (MDA-MB-435 [10]): 75.73%; Activity [11]: 68.98%; inhibition of growth at 10 µM (MCF7): 27.6%; inhibition of growth at 10 µM [12]: 31%; Activity [13]: 75.23%; inhibition of growth at 10 µM [14]: 41.6%; Activity [15]: 60.7%; inhibition of growth at 10 µM [16]: 12.1%; Activity (HT-29): 75.54%; Activity [17]: 68.48%; inhibition of growth at 10 µM (SK-MEL-5): 65.7%; inhibition of growth at 10 µM (SK-MEL-28): 8.95%; inhibition of growth at 10 µM [18]: 39.3%; Activity [19]: 88.25%; Activity [20]: 90.39%; Activity [21]: 44.7%; inhibition of growth at 10 µM [22]: 32.5%; inhibition of growth at 10 µM [23]: 8.04%; Activity (M14): 79.06%; inhibition of growth at 10 µM (MDA-MB-435 [24]): 24.3%; Activity [25]: 25.23%; Activity [26]: 44.68%; inhibition of growth at 10 µM [27]: 23.3%; Activity [28]: 58.35%; Activity (NCI-H522): 45.56%; Activity (U-251 [29]): 75.39%; Activity (NCI-H23): 62.53%; Activity [31]: 91.96%; inhibition of growth at 10 µM (K562): 51.7%
